Experimental data as given in ChEMBL document CHEMBL4689842, “EUbOPEN Chemogenomics Library wave 1” (2021).

How the values were obtained:
Assay type in all cases: toxicity, cell-based
[1] = test system: Fibroblast; experiment: Incucyte cell viability with human fibroblast; conditions: 10 µM, compound concentration 10 uM
[2] = test system: HEK-293T; experiment: Incucyte cell viability with HEK293T; conditions: human, 10 µM, compound concentration 10 uM
[3] = test system: U2OS; experiment: Incucyte cell viability with U2OS; conditions: human, 10 µM, compound concentration 10 uM
[4] = 0 h, replicate number 1, timepoint 0 hours
[5] = 0 h, replicate number 2, timepoint 0 hours
[6] = 6 h, replicate number 1, timepoint 6 hours
[7] = 12 h, replicate number 1, timepoint 12 hours
[8] = 18 h, replicate number 1, timepoint 18 hours
[9] = 18 h, replicate number 2, timepoint 18 hours
[10] = 24 h, replicate number 1, timepoint 24 hours
[11] = 6 h, replicate number 2, timepoint 6 hours
[12] = 12 h, replicate number 2, timepoint 12 hours
[13] = 24 h, replicate number 2, timepoint 24 hours
Further: filed as whole numbers so only -1 and 0 and 1 occur.

## CC1=C2C[C@H]3[C@@H](CC=C4C[C@@H](O)CC[C@@]43C)[C@@H]2CC[C@]12O[C@@H]1C[C@H](C)CN[C@H]1[C@H]2C [CYCLOPAMINE]
[1]; [4]
  Growth Rate: 0
[1]; [5]
  Growth Rate: 1
[1]; [6]
  Growth Rate: 1
[1]; [7]
  Growth Rate: 0
[1]; [8]
  Growth Rate: 0
[1]; [9]
  Growth Rate: 1
[1]; [10]
  Growth Rate: 0
[2]; [4]
  Growth Rate: 0
[2]; [6]
  Growth Rate: 0
[2]; [7]
  Growth Rate: 0
[2]; [8]
  Growth Rate: 0
[2]; [10]
  Growth Rate: 0
[3]; [4]
  Growth Rate: 0
[3]; [11]
  Growth Rate: 0
[3]; [12]
  Growth Rate: 1
[3]; [9]
  Growth Rate: 1
[3]; [10]
  Growth Rate: 1

## Cc1c(F)cccc1NC(=O)Nc1ccc(Cl)c(S(=O)(=O)[C@H]2CCCNC2)c1O [DANIRIXIN]
[1]; [4]
  Growth Rate: 0
[1]; [7]
  Growth Rate: 1
[1]; [8]
  Growth Rate: 1
[1]; [10]
  Growth Rate: 1
[2]; [4]
  Growth Rate: 0
[2]; [6]
  Growth Rate: 0
[2]; [7]
  Growth Rate: 0
[2]; [8]
  Growth Rate: 0
[2]; [10]
  Growth Rate: 0
[3]; [4]
  Growth Rate: 0
[3]; [5]
  Growth Rate: 1
[3]; [6]
  Growth Rate: 0
[3]; [11]
  Growth Rate: 1
[3]; [7]
  Growth Rate: 0
[3]; [12]
  Growth Rate: 1
[3]; [8]
  Growth Rate: 0
[3]; [9]
  Growth Rate: 1
[3]; [10]
  Growth Rate: 0
[3]; [13]
  Growth Rate: 1

## CCN(CCO)CCCOc1ccc2c(Nc3cc(CC(=O)Nc4cccc(F)c4)[nH]n3)ncnc2c1 [DEFOSBARASERTIB]
[1]; [5]
  Growth Rate: 1
[1]; [6]
  Growth Rate: 0
[1]; [7]
  Growth Rate: 0
[1]; [8]
  Growth Rate: 0
[1]; [10]
  Growth Rate: 0
[2]; [5]
  Growth Rate: 1
[2]; [11]
  Growth Rate: 1
[2]; [10]
  Growth Rate: 1
[3]; [4]
  Growth Rate: 1
[3]; [6]
  Growth Rate: 0
[3]; [7]
  Growth Rate: 0
[3]; [8]
  Growth Rate: 0
[3]; [10]
  Growth Rate: 0

## COc1cccc(-c2c(C)n(Cc3c(F)cccc3C(F)(F)F)c(=O)n(C[C@H](NCCCC(=O)[O-])c3ccccc3)c2=O)c1F.[Na+] [ELAGOLIX SODIUM]
[1]; [4]
  Growth Rate: 0
[1]; [5]
  Growth Rate: 1
[1]; [11]
  Growth Rate: 0
[1]; [12]
  Growth Rate: 0
[1]; [9]
  Growth Rate: 0
[1]; [13]
  Growth Rate: 0
[2]; [4]
  Growth Rate: 0
[2]; [6]
  Growth Rate: 1
[2]; [7]
  Growth Rate: 1
[2]; [12]
  Growth Rate: 0
[2]; [8]
  Growth Rate: 1
[2]; [10]
  Growth Rate: 1
[3]; [5]
  Growth Rate: 1
[3]; [6]
  Growth Rate: 0
[3]; [7]
  Growth Rate: 0
[3]; [8]
  Growth Rate: 0
[3]; [9]
  Growth Rate: 1
[3]; [10]
  Growth Rate: 0

## C[C@H](NC(=O)Nc1cc2[nH]ncc2c(CO)n1)c1ccccn1 [ERKi-NC]
[1]; [5]
  Growth Rate: 1
[1]; [6]
  Growth Rate: 0
[1]; [7]
  Growth Rate: 0
[1]; [8]
  Growth Rate: 1
[1]; [9]
  Growth Rate: 0
[1]; [10]
  Growth Rate: 1
[2]; [4]
  Growth Rate: 0
[2]; [5]
  Growth Rate: 1
[2]; [8]
  Growth Rate: 1
[2]; [10]
  Growth Rate: 1
[3]; [4]
  Growth Rate: 0
[3]; [6]
  Growth Rate: 0
[3]; [11]
  Growth Rate: 1
[3]; [7]
  Growth Rate: 0
[3]; [12]
  Growth Rate: 1
[3]; [8]
  Growth Rate: 0
[3]; [9]
  Growth Rate: 1
[3]; [10]
  Growth Rate: 0
[3]; [13]
  Growth Rate: 1

## C[C@@H](NC(=O)Nc1cc2[nH]ncc2c(CO)n1)c1ccccc1 [ERKi]
[1]; [4]
  Growth Rate: 0
[1]; [7]
  Growth Rate: 1
[1]; [8]
  Growth Rate: 1
[1]; [10]
  Growth Rate: 0
[1]; [13]
  Growth Rate: 1
[2]; [4]
  Growth Rate: 0
[2]; [13]
  Growth Rate: 1
[3]; [4]
  Growth Rate: 0
[3]; [6]
  Growth Rate: 0
[3]; [7]
  Growth Rate: 0
[3]; [8]
  Growth Rate: 0
[3]; [10]
  Growth Rate: 0

## CCOC(=O)c1ncn2c1CN(C)C(=O)c1cc(F)ccc1-2 [FLUMAZENIL]
[1]; [4]
  Growth Rate: 0
[1]; [11]
  Growth Rate: 0
[1]; [12]
  Growth Rate: 0
[1]; [8]
  Growth Rate: 1
[1]; [9]
  Growth Rate: 0
[1]; [10]
  Growth Rate: 1
[2]; [4]
  Growth Rate: 0
[2]; [6]
  Growth Rate: 1
[2]; [11]
  Growth Rate: 0
[2]; [7]
  Growth Rate: 1
[2]; [12]
  Growth Rate: 0
[2]; [8]
  Growth Rate: 1
[2]; [9]
  Growth Rate: 0
[2]; [10]
  Growth Rate: 1
[2]; [13]
  Growth Rate: 0
[3]; [4]
  Growth Rate: 1
[3]; [6]
  Growth Rate: 0
[3]; [7]
  Growth Rate: 0
[3]; [8]
  Growth Rate: 0
[3]; [9]
  Growth Rate: 1
[3]; [10]
  Growth Rate: 0
[3]; [13]
  Growth Rate: 1

## CC(C)(N)C(=O)N[C@H](COCc1ccccc1)C(=O)N1CCC2(CC1)CN(S(C)(=O)=O)c1ccccc12.CS(=O)(=O)O [IBUTAMOREN MESYLATE]
[1]; [4]
  Growth Rate: 1
[1]; [6]
  Growth Rate: 0
[1]; [11]
  Growth Rate: 1
[1]; [7]
  Growth Rate: 0
[1]; [12]
  Growth Rate: 1
[1]; [8]
  Growth Rate: 0
[1]; [10]
  Growth Rate: 0
[2]; [4]
  Growth Rate: 0
[2]; [6]
  Growth Rate: 0
[2]; [7]
  Growth Rate: 1
[2]; [8]
  Growth Rate: 0
[2]; [9]
  Growth Rate: 1
[2]; [10]
  Growth Rate: 0
[2]; [13]
  Growth Rate: 1
[3]; [11]
  Growth Rate: 1
[3]; [12]
  Growth Rate: 1
[3]; [8]
  Growth Rate: 1
[3]; [10]
  Growth Rate: 1

## CN(C)CCCN1c2ccccc2CCc2ccccc21.Cl [IMIPRAMINE HYDROCHLORIDE]
[1]; [4]
  Growth Rate: 0
[1]; [6]
  Growth Rate: 0
[1]; [7]
  Growth Rate: 0
[1]; [8]
  Growth Rate: 1
[1]; [9]
  Growth Rate: 0
[1]; [10]
  Growth Rate: 0
[2]; [5]
  Growth Rate: 1
[2]; [6]
  Growth Rate: 0
[2]; [7]
  Growth Rate: 0
[2]; [8]
  Growth Rate: 0
[2]; [10]
  Growth Rate: 0
[3]; [5]
  Growth Rate: 0
[3]; [7]
  Growth Rate: 1
[3]; [8]
  Growth Rate: 1
[3]; [10]
  Growth Rate: 1

## CC(C)(O)c1cncc(-c2nc3ccc(F)cc3n2C2CC2)c1 [MSD-CYP11B2]
[1]; [6]
  Growth Rate: 1
[1]; [11]
  Growth Rate: 0
[1]; [7]
  Growth Rate: 1
[1]; [8]
  Growth Rate: 1
[1]; [9]
  Growth Rate: 0
[1]; [13]
  Growth Rate: 1
[2]; [4]
  Growth Rate: 0
[2]; [5]
  Growth Rate: 1
[2]; [7]
  Growth Rate: 0
[2]; [8]
  Growth Rate: 0
[2]; [9]
  Growth Rate: 1
[2]; [10]
  Growth Rate: 0
[3]; [4]
  Growth Rate: 0
[3]; [6]
  Growth Rate: 0
[3]; [11]
  Growth Rate: 1
[3]; [7]
  Growth Rate: 0
[3]; [12]
  Growth Rate: 1
[3]; [8]
  Growth Rate: 0
[3]; [9]
  Growth Rate: 1
[3]; [10]
  Growth Rate: 1
